According to a flash point compilation (Sun et al. 2020):

flash point [°C] | Structure (SMILES)
44.00 | CC(O)COC(C)(C)C (stereo not given) [1-[(2-methylpropan-2-yl)oxy]propan-2-ol]
77.00 | CC(O)CN (stereo not given) [1-aminopropan-2-ol]
79.00 | Cc1ccccc1Br [1-bromo-2-methylbenzene]
85.00 | Cc1ccc(Br)cc1 [1-bromo-4-methylbenzene]
54.00 | CC(O)CBr (stereo not given) [1-bromopropan-2-ol]
52.00 | Cc1ccccc1Cl [1-chloro-2-methylbenzene]
-1.00 | CC(C)=CCl [1-chloro-2-methylprop-1-ene]
47.00 | FC(F)(F)c1cccc(Cl)c1 [1-chloro-3-(trifluoromethyl)benzene]
52.00 | Cc1cccc(Cl)c1 [1-chloro-3-methylbenzene]
150.00 | CCC(C(c1ccc(Cl)cc1)c1ccc(Cl)cc1)[N+](=O)[O-] (stereo not given) [1-chloro-4-[1-(4-chlorophenyl)-2-nitrobutyl]benzene]
157.00 | C1=CC(c2ccc(C3CC=CCC3)cc2)CCC1 (stereo not given) [1-cyclohex-2-en-1-yl-4-cyclohex-3-en-1-ylbenzene]
-9.00 | C=COCC(C)C [1-ethenoxy-2-methylpropane]
60.00 | C=Cc1ccccc1C [1-ethenyl-2-methylbenzene]
93.00 | C=CN1CCCC1=O [1-ethenylpyrrolidin-2-one]
9.00 | Cc1cccc(F)c1 [1-fluoro-3-methylbenzene]
41.00 | Cc1ccc(F)cc1 [1-fluoro-4-methylbenzene]
67.00 | COCCOCCOC [1-methoxy-2-(2-methoxyethoxy)ethane]
91.00 | C/C=C/c1ccc(OC)cc1 [1-methoxy-4-[(E)-prop-1-enyl]benzene]
46.00 | COCC(C)OC(C)=O (stereo not given) [1-methoxypropan-2-yl acetate]
96.00 | O=[N+]([O-])c1ccccc1C(F)(F)F [1-nitro-2-(trifluoromethyl)benzene]
85.00 | CCCCCSCCCCC [1-pentylsulfanylpentane]
82.00 | CC(=O)c1ccccc1 [1-phenylethanone]
48.00 | CCCOCC(C)O (stereo not given) [1-propoxypropan-2-ol]
101.00 | CC1=CC(C)(C)Nc2ccccc21 [2,2,4-trimethyl-1H-quinoline]

flash point [°C] | Structure (SMILES)
-12.00 | CC(C)CC(C)(C)C [2,2,4-trimethylpentane]
31.00 | CC(C)CCC(C)(C)C [2,2,5-trimethylhexane]
240.00 | OCC(CO)(CO)CO [2,2-bis(hydroxymethyl)propane-1,3-diol]
63.00 | COC(F)(F)C(Cl)Cl [2,2-dichloro-1,1-difluoro-1-methoxyethane]
37.00 | CC(C)(C)CO [2,2-dimethylpropan-1-ol]
64.00 | CC(C)(C)C(=O)O [2,2-dimethylpropanoic acid]
63.00 | C=C(Cl)C(Cl)CCl (stereo not given) [2,3,4-trichlorobut-1-ene]
210.00 | O=C(O)C(O)C(O)C(=O)O (stereo not given) [2,3-dihydroxybutanedioic acid]
2.00 | CC(C)=CC(C)(C)C [2,4,4-trimethylpent-2-ene]
46.00 | CC(C)(C)CC(C)(C)S [2,4,4-trimethylpentane-2-thiol]
24.00 | CC1COC(C)CO1 (stereo not given) [2,5-dimethyl-1,4-dioxane]
33.00 | CC1=CCC2CC1C2(C)C (stereo not given) [2,6,6-trimethylbicyclo[3.1.1]hept-2-ene]
85.00 | CC(C)=CC(=O)C=C(C)C [2,6-dimethylhepta-2,5-dien-4-one]
74.00 | CC(C)CC(O)CC(C)C [2,6-dimethylheptan-4-ol]
44.00 | CC1CNCC(C)O1 (stereo not given) [2,6-dimethylmorpholine]
74.00 | Cc1cccc(C)c1O [2,6-dimethylphenol]
127.00 | Cc1cc(C(C)(C)C)c(O)c(C(C)(C)C)c1 [2,6-ditert-butyl-4-methylphenol]
270.00 | c1ccc2sc(SSc3nc4ccccc4s3)nc2c1 [2-(1,3-benzothiazol-2-yldisulfanyl)-1,3-benzothiazole]
127.00 | NCCOCCO [2-(2-aminoethoxy)ethanol]
102.00 | NCCNCCO [2-(2-aminoethylamino)ethanol]
232.00 | O=C(OCCOCCOC(=O)c1ccccc1)c1ccccc1 [2-(2-benzoyloxyethoxy)ethyl benzoate]
96.00 | CCOCCOCCO [2-(2-ethoxyethoxy)ethanol]
97.00 | CCCCC(CC)COCC1CO1 (stereo not given) [2-(2-ethylhexoxymethyl)oxirane]

Second part, the compound before the results:

Structure (SMILES) | flash point [°C]
CC(O)CN(CC(C)O)CC(C)O (stereo not given) [1-[bis(2-hydroxypropyl)amino]propan-2-ol] | 160.00
O=P(N1CC1)(N1CC1)N1CC1 [1-[bis(aziridin-1-yl)phosphoryl]aziridine] | 163.00
CCCCOP(=O)(CCCC)OCCCC [1-[butoxy(butyl)phosphoryl]oxybutane] | 154.00
Brc1ccc(-c2ccccc2)cc1 [1-bromo-4-phenylbenzene] | 143.00
CC(CCl)OC(C)CCl (stereo not given) [1-chloro-2-(1-chloropropan-2-yloxy)propane] | 85.00
ClCCOCCCl [1-chloro-2-(2-chloroethoxy)ethane] | 55.00
ClCCOCOCCCl [1-chloro-2-(2-chloroethoxymethoxy)ethane] | 110.00
C=COCCCl [1-chloro-2-ethenoxyethane] | 16.00
O=[N+]([O-])c1ccccc1Cl [1-chloro-2-nitrobenzene] | 127.00
O=[N+]([O-])c1cccc(Cl)c1 [1-chloro-3-nitrobenzene] | 127.00
FC(F)(F)c1ccc(Cl)cc1 [1-chloro-4-(trifluoromethyl)benzene] | 47.00
O=C=Nc1ccc(Cl)cc1 [1-chloro-4-isocyanatobenzene] | 110.00
O=[N+]([O-])c1ccc(Cl)cc1 [1-chloro-4-nitrobenzene] | 110.00
CCCCCCCCCCCCCl [1-chlorododecane] | 113.00
Clc1cccc2ccccc12 [1-chloronaphthalene] | 121.00
CC(C)c1cc(OO)cc(C(C)C)c1 [1-hydroperoxy-3,5-di(propan-2-yl)benzene] | 79.00
COc1ccccc1[N+](=O)[O-] [1-methoxy-2-nitrobenzene] | 142.00
C=CCc1ccc(OC)cc1 [1-methoxy-4-prop-2-enylbenzene] | 81.00
Cc1ccccc1[N+](=O)[O-] [1-methyl-2-nitrobenzene] | 106.00
Cc1cccc([N+](=O)[O-])c1 [1-methyl-3-nitrobenzene] | 106.00
O=[N+]([O-])c1ccc(-c2ccccc2)cc1 [1-nitro-4-phenylbenzene] | 143.00
O=[N+]([O-])c1cccc2ccccc12 [1-nitronaphthalene] | 164.00
CCC[N+](=O)[O-] [1-nitropropane] | 34.00
O=NN1CCCC1 [1-nitrosopyrrolidine] | 83.00

Structure (SMILES) | flash point [°C]
c1nc[nH]n1 [1H-1,2,4-triazole] | 170.00
C1=Cc2ccccc2C1 [1H-indene] | 78.00
O=CC(Cl)(Cl)Cl [2,2,2-trichloroacetaldehyde] | 75.00
O=C(O)C(Br)Br [2,2-dibromoacetic acid] | 113.00
Oc1ccc(Cl)c(Cl)c1Cl [2,3,4-trichlorophenol] | 62.00
Oc1c(Cl)ccc(Cl)c1Cl [2,3,6-trichlorophenol] | 79.00
Cc1cccc(N)c1C [2,3-dimethylaniline] | 97.00
Oc1cc(Cl)c(Cl)cc1Cl [2,4,5-trichlorophenol] | 133.00
CC1OC(C)OC(C)OC(C)O1 (stereo not given) [2,4,6,8-tetramethyl-1,3,5,7-tetraoxocane] | 36.00
Oc1c(Cl)cc(Cl)cc1Cl [2,4,6-trichlorophenol] | 99.00
CC1OC(C)OC(C)O1 (stereo not given) [2,4,6-trimethyl-1,3,5-trioxane] | 36.00
CC(C)(C)c1cc(C(C)(C)C)c(O)c(C(C)(C)C)c1 [2,4,6-tritert-butylphenol] | 130.00
Nc1ccc(Cl)cc1Cl [2,4-dichloroaniline] | 115.00
Oc1ccc(Cl)cc1Cl [2,4-dichlorophenol] | 114.00
Nc1ccc(F)cc1F [2,4-difluoroaniline] | 63.00
Cc1ccc(N=C=O)cc1N=C=O [2,4-diisocyanato-1-methylbenzene] | 132.00
Cc1ccc([N+](=O)[O-])c(C)c1 [2,4-dimethyl-1-nitrobenzene] | 107.00
Nc1ccc([N+](=O)[O-])cc1[N+](=O)[O-] [2,4-dinitroaniline] | 224.00
CC(C)(C)OOC(C)(C)CCC(C)(C)OOC(C)(C)C [2,5-bis(tert-butylperoxy)-2,5-dimethylhexane] | 85.00
O=S1(=O)CC=CC1 [2,5-dihydrothiophene 1,1-dioxide] | 113.00
Cc1ccc(C)c(N)c1 [2,5-dimethylaniline] | 94.00
Cc1cccc(C)c1N [2,6-dimethylaniline] | 91.00
CCCCOCCOCCO [2-(2-butoxyethoxy)ethanol] | 78.00
CCCCOCCOCCOC(C)=O [2-(2-butoxyethoxy)ethyl acetate] | 116.00
